# Reference: patent publication US10626349B2, “Cleavable surfactants” (PROMEGA CORPORATION, priority 2007, dated 2020)
# “Also recorded” adds a separate entry of the source.
# How the values were obtained:
# [1] = target: T1, Myoglobin from horse heart digested with trypsin (Equus caballus, UniProt P68082); experiment: Myoglobin/Trypsin digest, HPLC peak area versus RapiGest control; assay type: biochemical; conditions: 0.01% surfactant, trypsin 50:1, 20 minutes at 37° C.; ratio to RapiGest control, >1 = more digestion
# T1 construct: Myoglobin from horse heart; from tissue; host or cells: horse heart
# Method: Myoglobin from horse heart (typically 25 μs) was digested with trypsin (Promega) at a 50:1 ratio in a volume of 125 μL (typical) of 50 mM Ammonium bicarbonate for 20 minutes at 37° C. with 0.01% RapiGest™ surfactant or 0.01% of the indicated compound of the invention (upper and lower chromatograms, respectively). TFA was added to 0.5-2% and the mixtures were incubated at 37° C. or 65° C. for 20 or 30 minutes. Degraded surfactant was removed by centrifugation at 14,000×g for 5 minutes. HPLC analysis was performed on a 25-50 μL reaction sample using an HP1050 LC system with an Agilent Sorbax SB-C18 column (3.0×100 mm, 3.5 micron) and a gradient of 0.1% TFA (97.5% initial) and Acetonitrile, 0.01% TFA (55% final condition followed by a 100% wash step) and a flow rate of 0.75 mL/min. Peptides were detected at 214 and 280 nm.
# (§1) For each compound numbered below in Example 12, the rate of enhanced digestion was determined from the ratio of the surfactant peak area (surfactant # Pk. Area) to the Rapigest™ surfactant peak area (RG Pk area). Peak area was determined as the sum of all peaks integrated from 8-22 minutes.
# [2] = Solubility of the surfactant; conditions: for solubility in aqueous solutions (concentration dissolved to): aqueous solution; for solubility (concentration dissolved to): in 50 mM ammonium bicarbonate
# [3] = target: T2, Bacteriorhodopsin digested with chymotrypsin (Halobacterium salinarum, UniProt P02945); experiment: Bacteriorhodopsin/Chymotrypsin digest, HPLC peak area versus RapiGest control; assay type: biochemical; conditions: 0.025% surfactant
# T2 sequence (P02945 14-261 limits assumed): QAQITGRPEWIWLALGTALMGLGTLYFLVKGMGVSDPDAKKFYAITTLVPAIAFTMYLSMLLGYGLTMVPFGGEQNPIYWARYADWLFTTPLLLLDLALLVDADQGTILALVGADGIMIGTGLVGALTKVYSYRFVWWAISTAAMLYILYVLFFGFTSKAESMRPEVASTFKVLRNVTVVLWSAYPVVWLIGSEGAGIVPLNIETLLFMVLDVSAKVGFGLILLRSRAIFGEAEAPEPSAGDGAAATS
# Method: Bacteriorhodopsin (25 μs) was heated with 0.025% Rapigest™ surfactant or the indicated compound of the invention for 5 minutes at 95° C., then digested with chymotrypsin (Sigma) at a 10:1 ratio in 125 μL 50 mM Ammonium bicarbonate for 1 hour at 37° C. After one hour TFA was added to 0.5-2% and the mixtures were incubated at 37° C. or 65° C. for 20 or 30 minutes. Degraded surfactant was removed by centrifugation at 14,000×g for 5 minutes. An aliquot of 50-100 μL of digested protein was analyzed by HPLC as described above.
# Compound 3211, 3212, 3224 and Rapigest™ surfactant control for FIG. 13C reactions: Bacteriorhodopsin (25 μs) was solubilized with 0.025% compound of interest for 1-2 minutes at room temperature, then digested with chymotrypsin (Sigma) at a 10:1 ratio in 125 μL 50 mM Ammonium bicarbonate for 1 hour at 37° C. After one hour TFA was added to 0.5-2% and the mixtures were incubated at 37° C. or 65° C. for 20 or 30 minutes. Degraded surfactant was removed by centrifugation at 14,000×g for 5 minutes. An aliquot of 50-100 μL of digested protein was analyzed by HPLC as described above.
# as §1
# [4] = target: trypsin (Sus scrofa, UniProt P00761); experiment: Trypsin activity measured as rate of BAEE cleavage; assay type: biochemical; conditions: standard digestion conditions
# Text: Compound 3116 can be used as an acid-labile surfactant to facilitate the solubilization and denaturation of a protein or peptide. Compound 3116 stabilizes proteases and enhances the proteolysis activity of trypsin. See FIG. 2, which illustrates the effect of compound 3116 on trypsin activity.
# [5] = Acid and thermal degradation of the surfactant; conditions: for time to degradation in 0.5% TFA: 0.1% solution for 3220 and 3266
# [6] = target: Horse myoglobin digested with trypsin (Equus caballus, UniProt P68082); experiment: One hour digestion of myoglobin with trypsin (HPLC); assay type: biochemical; conditions: for digestion of myoglobin in one hour (in words): trypsin, 3116: 0.01%, 50:1, one hour at 37° C.
# Method: For example, digestion of myoglobin using standard protocol requires overnight digestion. […] Horse myoglobin was digested with trypsin at a 50:1 ratio for one hour at 37° C., alone and separately in the presence of 0.01% compound 3116.
# The peaks in FIG. 3A and FIG. 3B indicate peptides or partial digestion fragments.
# [7] = Hydrolytic stability in 50 mM ammonium bicarbonate (reverse-phase HPLC); assay type: physicochemical; set-up: key: >>: compound 100% stable over course of experiment
# Method: Hydrolytic stability was measured by monitoring the change in retention time of the intact surfactant by reverse-phase HPLC. The ½-life is defined as the time required to reach 50% degradation.
# [8] = target: T3, beta subunit of mouse ATP synthase (Mus musculus, UniProt P56480); experiment: In-gel trypsin digestion of 56 kD band of mouse heart membrane protein, mass spectrometry; assay type: biochemical
# T3 construct: Total membrane protein from mouse heart was resolved in SDS-polyacrylamide gel; from tissue; host or cells: mouse heart, total membrane protein, 56 kD SDS-PAGE band
# Method: 13. Rehydrate for 5 minutes in 20 μL 12 ng/μL Trypsin Gold (in 0.025% surfactant A/50 mM […] AmBic). Overlay with 30 μL of 0.01% surfactant A/50 mM AmBic to cover gel pieces. Incubate 1 hour at 50° C.
# Total membrane protein from mouse heart was resolved in SDS-polyacrylamide gel and a single protein band was digested with a conventional digestion protocol (control) and separately with a compound 3211-assisted protocol.
# A band of the protein with an approximate MW of 56 kD was excised and digested with trypsin. The digested samples were analyzed by mass spectrometry. […] Asterisks indicate identified peptides for beta subunit of mouse ATP synthase (the major protein in 56 kD band).
# [9] = Stability and degradation profile of surfactant 3211 solutions; assay type: physicochemical
# Method: FIG. 1 illustrates the degradation profile of a 0.025% solution of surfactant 3211 at 40° C., according to one embodiment.
# For example, degradation of surfactant compound 3211 after protein digestion is not required because the surfactant degrades during the digestion process. The stability of a 1% solution of 3211 (10% degradation) is 8 hours at 23° C., 12 days at 4° C., and an estimated >3 years at −20° C. However, the degradation rate of surfactant 3211 increases in a typical protein digestion protocol. […] Less than about 5% of intact surfactant remains after only 2 hours.
# [10] = target: T2, Bacteriorhodopsin digested with chymotrypsin; experiment: Bacteriorhodopsin/Chymotrypsin digest, HPLC peak area versus RapiGest control; assay type: biochemical; conditions: at 0.1% surfactant, BR boiled with surfactant, chymotrypsin 10:1
# [11] = target: T4, Ovalbumin (albumin from chicken egg white) treated with PNGase F (Gallus gallus, UniProt P01012); experiment: Deglycosylation of ovalbumin with PNGase F (SDS-PAGE); assay type: biochemical; conditions: 0.025% surfactant, 1 hour and 20 minutes at 37° C.
# T4 construct: Ovalbumin (albumin from chicken egg white); purchased Sigma
# T4 sequence (P01012 2-386 limits assumed): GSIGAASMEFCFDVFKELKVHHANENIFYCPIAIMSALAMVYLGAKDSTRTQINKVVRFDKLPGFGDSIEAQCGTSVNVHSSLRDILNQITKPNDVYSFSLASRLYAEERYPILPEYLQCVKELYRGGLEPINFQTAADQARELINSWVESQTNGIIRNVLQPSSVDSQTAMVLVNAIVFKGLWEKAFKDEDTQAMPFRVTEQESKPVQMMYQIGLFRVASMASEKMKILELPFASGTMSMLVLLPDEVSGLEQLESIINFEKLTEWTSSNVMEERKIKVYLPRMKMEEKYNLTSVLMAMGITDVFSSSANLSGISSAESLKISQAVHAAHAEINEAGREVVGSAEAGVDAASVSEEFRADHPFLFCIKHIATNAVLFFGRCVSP
# Method: Surfactants described herein were evaluated as replacements for SDS in deglycolsylation protocols. Ovalbumin (albumin from chicken egg white) was selected as a model protein. Ovalbumin is a 44.3 kD glycoprotein with 1.4 kD carbohydrate units linked to the protein. […] Surfactant compound 3266 is acid-labile and it can be easily degraded, allowing for analysis of the protein and carbohydrate using mass spectrometric analysis.
# Ovalbumin (Sigma) (45 μg) was dissolved in 0.025% 3266/5 mM DTT/25 mM ammonium bicarbonate (pH ˜8) and incubated at 95° C. for 5 minutes. In the control reaction, 3266 was replaced with SDS. Deglycosylation was initiated by adding 1.5μ units PNGase F (Sigma). After 1 hour and 20 minutes of incubation at 37° C., the reactions were terminated by incubation at 95° C. for 5 minutes and an aliquot from each reaction was resolved with SDS-PAGE. […] The analyses indicate that compound 3266 is equivalent to the deglycosylation enhancement found using SDS, while eliminating the deleterious effects of SDS in concomitant spectrometric and chromatographic analysis.
# [12] = surfactant conc. 0.025% in 50 mM ammonium bicarbonate
# [13] = surfactant conc. 1% in 50 mM ammonium bicarbonate
# [14] = 1 hour in-gel digestion with surfactant
# Chain of Horse myoglobin digested with trypsin (P68082 2-154 limits assumed): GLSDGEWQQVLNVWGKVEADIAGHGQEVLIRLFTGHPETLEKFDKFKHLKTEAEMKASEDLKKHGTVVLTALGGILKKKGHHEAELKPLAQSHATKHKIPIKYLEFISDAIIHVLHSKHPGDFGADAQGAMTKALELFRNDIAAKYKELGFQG
# T1 sequence (P68082 2-154 limits assumed): as above
# T3 sequence (P56480 47-529): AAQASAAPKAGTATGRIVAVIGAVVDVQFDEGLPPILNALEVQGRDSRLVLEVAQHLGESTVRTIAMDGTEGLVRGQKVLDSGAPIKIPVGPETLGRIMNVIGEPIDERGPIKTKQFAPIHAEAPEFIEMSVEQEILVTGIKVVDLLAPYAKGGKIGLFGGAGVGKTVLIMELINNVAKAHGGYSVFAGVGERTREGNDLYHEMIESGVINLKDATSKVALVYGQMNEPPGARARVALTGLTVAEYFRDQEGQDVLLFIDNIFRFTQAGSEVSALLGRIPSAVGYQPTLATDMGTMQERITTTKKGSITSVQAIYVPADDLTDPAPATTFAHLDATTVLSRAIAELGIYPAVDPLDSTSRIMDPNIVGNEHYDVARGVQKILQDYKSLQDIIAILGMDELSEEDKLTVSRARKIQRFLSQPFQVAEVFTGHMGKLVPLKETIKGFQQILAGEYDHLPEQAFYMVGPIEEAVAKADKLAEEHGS
# Chain of trypsin (P00761 9-231): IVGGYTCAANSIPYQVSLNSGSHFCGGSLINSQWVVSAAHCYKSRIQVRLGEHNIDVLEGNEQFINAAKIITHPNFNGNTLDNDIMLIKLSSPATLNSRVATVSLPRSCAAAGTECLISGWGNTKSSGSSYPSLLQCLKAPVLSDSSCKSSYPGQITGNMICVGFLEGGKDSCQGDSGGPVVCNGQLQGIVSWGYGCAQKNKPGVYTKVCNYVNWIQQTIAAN
smiles,measurement,setting,value
CCCCCCCCCCCC(C)(C)OC(=O)NCCCS(=O)(=O)O [Compound 3116],"surfactant Pk area/RG Pk area, Myoglobin/Trypsin digest",[1],0.6
same,solubility in aqueous solutions (concentration dissolved to),[2],≥ 0.5%
same,"surfactant Pk area/RG Pk area, Bacteriorhodopsin/Chymotrypsin digest","[3]; BR heated (boiled) with surfactant 5 minutes at 95° C., chymotrypsin 10:1, 1 hour at 37° C., ratio to RapiGest control",1.5
same,effect on trypsin activity (in words),[4],stabilized trypsin activity
same,time to degradation of 0.01% solution,"[5]; 0.01% solution, 37° C. where stated",≤ 2 h
same,identifiable peaks in HPLC chromatogram of myoglobin digest,"[6]; 0.01% 3116, trypsin 50:1, one hour at 37° C.",> 15
same,digestion of myoglobin in one hour (in words),[6],largely digested within one hour
CCCCCCCCCCC(OC(=O)NCCCS(=O)(=O)O)c1ccco1 (stereo not drawn) [Compound 3211],½-life,[7]; 0.025%/20% AcN,6 h
same,½-life,[7]; 0.025%/40% AcN,52 h
same,½-life,[7]; 0.025%/60% AcN,>100 h
same,½-life,[7]; 0.025%/80% AcN,>>
same,½-life,[7]; 1%/50% AcN,>100 h
same,½-life,[7]; surfactant conc. 0.0025% in 50 mM ammonium bicarbonate,0.5 h
same,½-life,[7]; [12],1.1 h
same,½-life,[7]; surfactant conc. 0.10% in 50 mM ammonium bicarbonate,4.8 h
same,½-life,[7]; [13],21 h
same,increase in sequence coverage versus protocol without surfactant,[8],50%
same,MASCOT score for beta subunit of ATP synthase,[8]; [14],920
same,sequence coverage for beta subunit of ATP synthase,[8]; [14],75%
same,intact surfactant remaining,"[9]; 0.025% solution at 40° C., after 2 hours",Less than 5%
same,stability of a 1% solution (10% degradation),"[9]; 1% solution, 4° C.",12 days
same,stability of a 1% solution (10% degradation),"[9]; 1% solution, 23° C.",0.33 days
same,"stability of a 1% solution (10% degradation), estimated","[9]; 1% solution, −20° C.",> 3 years
same,"surfactant Pk area/RG Pk area, Myoglobin/Trypsin digest",[1],1.3
same,solubility (concentration dissolved to),[2],1%
same,"surfactant Pk area/RG Pk area, Bacteriorhodopsin/Chymotrypsin digest","[3]; BR solubilized at room temperature (not boiled), RapiGest control boiled",0.9
same,time to degradation in 0.5% TFA,[5]; 37° C. where stated,15 min
same,time to degradation by boiling without TFA,[5]; boiling without TFA,5 min
same,degradation at room temperature (in words),[5]; room temperature,degrades even at room temperature at a substantial rate
same,digestion of myoglobin in one hour (in words),[6],complete digestion
CCCCCCCCCCOc1ccc(C(OCCc2ccc(N(CCCCS(=O)(=O)[O-])CCCCS(=O)(=O)[O-])cc2)(c2ccccc2)c2ccccc2)cc1.[Na+].[Na+] [Compound 3214],"surfactant Pk area/RG Pk area, Bacteriorhodopsin/Chymotrypsin digest",[10],0.6
same,solubility in aqueous solutions (concentration dissolved to),[2],1%
CCCCCCCCCCCCC(OC(=O)NCCCS(=O)(=O)O)c1ccc(OC)c(OC)c1 (stereo not drawn) [Compound 3266],½-life,[7]; [12],>>
same,½-life,[7]; surfactant conc. 0.25% in 50 mM ammonium bicarbonate,>>
same,½-life,[7]; [13],>>
same,"surfactant Pk area/RG Pk area, Myoglobin/Trypsin digest",[1],1.2
same,solubility (concentration dissolved to),[2],2%
same,deglycosylation of ovalbumin by PNGase F (in words),[11],rapidly removed carbohydrate from ovalbumin; also recorded: transformed into a deglycosylated 42.9 kD form
same,time to degradation in 0.5% TFA,[5]; 37° C. where stated,≤ 30 min
same,thermolability (in words),[5]; 3266: 5 minutes at 95° C.,not thermolabile
"CCCCCCCCCCCCOS(=O)(=O)[O-].[Na+] [SDS, sodium dodecyl sulfate, reference compound]",effect on trypsin activity (in words),[4],inhibited trypsin activity within 30 minutes
same,deglycosylation of ovalbumin by PNGase F (in words),[11],transformed into a deglycosylated 42.9 kD form
